Test results published in patent publication US7556825B2, “Method for promoting hair growth” (Anticancer, Inc., priority 1993, dated 2009).
One block for each molecule: values may come before it.

Legend:
hair follicles [1] = assay: Liposome-mediated delivery of melanin to hair follicles in white-haired mouse skin histoculture; type: cell-based
Description: To that end, liposomes were prepared by sonication. About 20 mg of egg phosphatidycholine was rotary evaporated with a vacuum drier from a chloroform solution to form a thin film on the walls of a 5 ml round-bottomed flask for about 1 hour. The dried thin film phospholipid was suspended in about 0.5 ml phosphate buffered saline (pH 7.4) on a vortex mixer and then sonicated with a Branson probe-type sonicator fitted with a microtip at power level 3 for about 8 minutes. Then 0.5 ml of a solution of melanin (10 mg/ml) was entrapped with the above suspension by sonication for about an additional 4 minutes. Liposomes were separated from the non-entrapped melanin by gel-filtration on a Sepharose 4B column equilibrated with phosphate buffered saline.
Pieces of outbred white-haired mouse skin derived from 1-2 weeks-old animals (about 2×5×2 mm each) were harvested under a dissection microscope. […] Liposome interaction with the skin was initiated after about 24 hours of histoculture. Mouse skin histocultures were incubated for about 12 hours with liposomes. […]
The skin histocultures were counter-stained with the dye 2′,7′-bis(2-carboxyethyl)-5 which is activated to fluorescence by nonspecific esterases present only in living cells. After the tissues were thoroughly washed, the specimens were analyzed with a Nikon fluorescence microscope equipped with a fluorescein cube. […]

hair follicles [2] = conditions: mouse, in vivo
Description: Liposomes were prepared essentially as described in Example 1. […] Thereafter, 0.5 ml of either calcein (10 mg/ml) or melanin (10 mg/ml) solution, respectively, were added to sonicated PC liposome composition, and further sonicated for 6 minutes, followed by freeze-thawing three times. […] A sample of about 250 microliters of the liposome composition entrapping calcein or melanin was applied directly to the dorsal skin on the mouse in an area of approximately 1.5 cm^2 using a sutured band-aid patch to immobilize the liposome composition onto the skin and to prevent evaporation. The liposome composition was re-applied every 1 hour for 6 hours, with the last application remaining for a total of 24 hours at which time the skin samples were taken by punch biopsy for analysis. For time course experiments, one mouse was used for each time period, with 6 punch biopsies taken from each mouse, at 0.5, 1, 2, 4, 6, 16 and 24 hours. […] Skin samples containing calcein were also analyzed by spectrofluorimetry to determine the effective concentration of a delivered beneficial compound into a selected tissue. […] The sonicated sample was then centrifuged for 10 minutes in a microcentrifuge at 14,000×g, and the resulting supernatant was measured by spectrofluorimetry at an excitation wavelength of 496 nm and an emission wavelength of 517 nm for detecting calcein. The concentration of calcein delivered into the skin tissue was determined from the spectrofluorometric readings by comparison to a standard curve. Skin samples containing melanin were also analyzed by is spectrophotometry to determine the effective concentration of a delivered beneficial compound into a selected tissue. […] The sonicated sample was then centrifuged for 10 minutes in a microcentrifuge at 14,000×g, and the resulting supernatant was measured by spectrophotometry at an absorption wavelength of 300 nm for detecting absorption by melanin. The concentration of melanin delivered into the skin tissue was determined from the spectrophotometric readings by comparison to a standard curve.

hair follicles [3] = assay: In vivo topical liposome-melanin coloring of regrowing hair in depilated white-haired mice; set-up: species or system mouse
Excerpt: 3-4 week old white-haired mice were depilated by a mixture of bees wax and rosin gum. Topical application of liposome-melanin as described herein was started on day 6 after depilation. […] The skin surface was then washed with an excess of water and wipe-dried with a gauze pad. The out-growing hair was micro-photographed. The same concentration of naked melanin solution as entrapped into liposomes was used as the control. In another experiment, 3-4 week old white-haired mice were depilated by a mixture of bees wax and rosin gum. Topical application of liposome-melanin composition was started on day 10 after depilation. The melanin used in this experiment was from Biosource, SF, CA #MM-8A-1. The liposome-melanin composition was applied on the skin of mice twice per day for 3 days. The treated skin surface was then washed with an excess of water and wipe-dried with a gauze pad. The mice were then photographed. The same concentration of naked melanin solution as entrapped into liposomes was used as the control.

patients = conditions: cited from earlier work
Sprague-Dawley rats = conditions: ip chemotherapy
Description: 8-day old Sprague-Dawley rats are treated topically with liposome compositions as described in Example 1 containing a compound such as p21 to be screened for its effect on chemotherapy-induced alopecia. The liposome composition is provided at a concentration of 100 μg/ml in 1 mM β-mercaptoethanol, for 2 days. […] The rats are then treated with cyclophosphamide, CTX (35 mg/kg, ip once) with the combination of CTX (25 mg/kg)+doxorubicin, DOX (2.5 mg/kg), ip once per day for 3 days, respectively. One rat pup without chemotherapy was used as control.

[4] = test system: Fischer or Sprague-Dawley rats; conditions: cited from earlier work; for alopecia in young rats after treatment: starting from the head, around one to two weeks after treatment
hair follicles [5] = assay: Liposome-mediated delivery of calcein dye to hair follicles in mouse skin histoculture; type: cell-based
Description: For the histoculture of skin, pieces of shaved outbred white-haired-mouse or nude-mouse skin, approximately 2×5×2 mm, were harvested under a dissection microscope and then histocultured on collagen-gel supported sponge as described by Li et al., Proc. Natl. Acad. Sci. USA 88:1908-1912, 1991. Histoculture was continued for about 24 hours prior to contacting the skin histoculture with the liposome preparation.
Liposomes were prepared by sonication of about 15 mg or 25 mg, preferably 25 mg, phosphatidylcholine (PC) emulsion in phosphate buffered saline (PBS) containing about 20 mg/ml of the fluorescent dye calcein. Liposomes were also prepared by entrapping NBD-phosphatidylcholine fluorescent dye using an emulsion with about 20 mg/ml of the NBD formulation. Liposomes were separated from the non-entrapped dye by gel-filtration on a Sepharose 4B column diluted with phosphate buffered saline. The amount of entrapped dye was measured spectrofluorometrically. Two types of PC were used: egg PC (EPC) and dipalmitoyl PC (DPPC). Due to their phase transition temperatures, liposomes made of DPPC are in a gel phase at about 37° C. while liposomes prepared from EPC are in a liquid-crystalline state.
Samples of the mouse skin histocultures were incubated for about 20 minutes with each of the liposomes and with a solution of “free” calcein dye at the same concentrations used in the liposome preparation. After the tissue samples were thoroughly washed with culture medium free of liposomes to remove excess liposome composition, the specimens were analyzed with a BioRad MRC 600 laser confocal microscope with a BHS filter block, which excites the tissue at 488 nm and passes the light emitted at 520 nm. These parameters are close to the excitation and emission maxima reported for calcein, Haugland, (Ed.) Molecular probes. Handbook of Fluorescent Probes and Research Chemicals, Molecular Probes, Inc., Eugene, (1989-1991 and 1992-1993). There is no autofluorescence of tissue when these emission and excitation wavelengths are used. […]

melanin delivered to the hair follicles (hair follicles [2]): less than 2.0 ug/mm^2
Molecule: melanin [naked melanin]
localization of melanin in hair follicles and hair shafts (H&E paraffin section) (hair follicles [1]): no “free” melanin can be observed either in hair shafts or the hair follicular cells
coloring of out-growing hair (hair follicles [3]; topical once per day for 4 days from day 6 after depilation): No hair coloring is observed
coloring of regrown hair (hair follicles [3]; topical twice per day for 3 days from day 10 after depilation): regrown hair remained white

Molecule: O=P1(N(CCCl)CCCl)NCCCO1 (centres unmarked) [CTX, cyclophosphamide]
patients with severe alopecia (patients; intravenous): 75-90%
other toxic effects in rat pups (Sprague-Dawley rats): No other toxic effects were noted
alopecia in rat pups (Sprague-Dawley rats; noted at day-7): alopecia can be seen
alopecia in young rats after treatment [4]: develop alopecia

Molecule: COc1cccc2c1C(=O)c1c(O)c3c(c(O)c1C2=O)C[C@@](O)(C(=O)CO)C[C@@H]3O[C@H]1C[C@H](N)[C@H](O)[C@H](C)O1 [doxorubicin]
hair loss in patients (patients; human, in vivo): 85-100%
alopecia in young rats after treatment [4]: develop alopecia

Molecule: Nc1ccn([C@@H]2O[C@H](CO)[C@@H](O)[C@@H]2O)c(=O)n1 [ara-C]
alopecia in young rats after treatment [4]: develop alopecia

Molecule: C=C1/C(=C\C=C2/CCC[C@]3(C)[C@@H]([C@H](C)CCCC(C)(C)O)CC[C@@H]23)C[C@@H](O)C[C@@H]1O [1,25-dihydroxyvitamin D3]
prevention of alopecia induced by cytoxan or etoposide ([4]; topical): prevents alopecia induced by cytoxan or etoposide

calcein delivered in the hair follicles (hair follicles [2]; outbred white-haired, 24 h): about 1.4 ng/mm^2
Molecule: O=C(O)CN(CC(=O)O)Cc1cc2c(cc1O)Oc1cc(O)c(CN(CC(=O)O)CC(=O)O)cc1C21OC(=O)c2ccccc21 [free calcein, calcein]
delivery of calcein into hair follicles and shafts (fluorescent microscopy) (hair follicles [2]): trapped in the stratum corneum and did not enter the hair shafts or follicles
delivery of calcein into hair follicles by topical use (hair follicles [5]; histoculture topically treated 48 hours): rarely penetrated through the skin to stain the hair follicles
delivery of green fluorescent dye to hair follicles and shafts (hair follicles [5]; histoculture treated 48 hours, propidium iodide counterstain): very weak staining of a few hair follicles
delivery of fluorescent dye to hair follicles (confocal fluorescence microscopy) (hair follicles [5]; skin histoculture incubated about 20 minutes): relatively low fluorescence with no preferential staining of any particular skin structure
